Results on 3 compounds are retold here after patent publication US10028943B2, “Method for treatment of radiologically-dense breasts” (priority 2015, dated 2018).

The test system of test [1] is mammography-established dense breasts. The test is described as follows: Treatment of dense breasts: oral reduced TEMPOL in a person. The test is classed as in vivo, human. As to the method:
The reduced form of TEMPOL (TEMPOL-H) or equivalent pharmacologically-active spin label/spintrap is prepared by mixing together 2 grams of TEMPOL or a pharmacologically effective amount of another spin-label or spin trap such as methynitrosopropane, 20 grams of ascorbic acid or other reducing compound in 100 ml of distilled water. The formulation is used as is. The solution is slightly-bitter. The formulation can be administered diluted in a suitable liquid such as juice, tea, or coffee. An equivalent dry form as 10 mg of tempol mixed with 100 mg of ascorbic acid or equivalent reducing substance can be easily prepared in capsule or tablet form.
One-half ml of the above solution, comprising 10 mg TEMPOL plus 100 mg ascorbic acid, was administered orally once a day to a 50 kg person with mammography-established dense breasts.

The test system of test [2] is acute ischemic stroke. Conditions: Shuaib et al. N Engl J Med 2007; cited from earlier work.
Test [3] deals with breast density. Put plainly: Extemporaneous oral TEMPOL-H treatment for fibrocystic disease of breast. The test is classed as in vivo, human. As to conditions: patient.

Take `CC1(C)CC(O)CC(C)(C)N1[O]` [Tempol, 4-hydroxy-2,2,6,6-tetramethylpiperidin-1-yloxy]: in test [1] (same doses as reduced TEMPOL (10 mg)), the “efficacy of unreduced Tempol itself” value was “effective at the same doses”.

As to `CC(C)(C)[N+]([O-])=Cc1ccc(S(=O)(=O)[O-])cc1S(=O)(=O)[O-].[Na+].[Na+]` [NXY-059, disulfonyl PBN], the neuroprotective efficacy entry in test [2] was “effective in animal models, but not in humans”.

As for `CC1(C)CC(O)CC(C)(C)N1O` [TEMPOL-H, the hydroxylamine reduced form of the nitroxide 4-hydroxy-2,2,6,6-tetramethylpiperidin-1-yloxy], in test [3] (after cessation of treatment), the “clinical signs and symptoms upon cessation of treatment” value is on record as “reappeared within a few weeks”. For the same compound, the “clinical signs and symptoms upon resumption of treatment” value in test [3] (after resumption of treatment) is reported as “again regressed”. Further, the “clearing of breast density” value in test [3] (oral formulation of TEMPOL-H) was “significant clearing of breast density”. Further, in test [1] (10 mg TEMPOL plus 100 mg ascorbic acid orally once a day, 50 kg person, first results after several weeks of treatment), the “mammographic clearing of breast densities” value was “significant mammographic clearing of breast densities”. For the same compound, the “breast densities on cessation of treatment” value in test [1] (cessation of treatment for a few weeks) was “eventually reappear on cessation of treatment for a few weeks”. Also, the “breast densities upon reinstatement of treatment” value in test [1] (reinstatement of treatment) is “breast densities reoccur”.
